Like-named read-outs stand apart in the source and are kept apart here.
Assays:
[1] = test system: rabbit iliac artery rings; assay type: cell-based; conditions: for Effect on PE contractions: 2′,5′-DDA 200 μM, glibenclamide 10 μM, charybdotoxin 100 nM plus apamin 300 nM
Experimental: (§1) Isolated Ring Preparations. Male New Zealand white rabbits (2-2.5 kg) were sacrificed with sodium pentobarbitone (120 mg/kg; i.v.) and the iliac artery removed and transferred to cold Holman's buffer of the following composition (mM): 120 NaCl, 5 KCl, 2.5 CaCl2, 1.3 NaH2PO4, 25 NaHCO3, 11 glucose, and 10 sucrose. The vessels were stripped of adherent tissue, and rings 2-3 mm wide cut and suspended in organ chambers containing gassed (95% 02, 5% CO2, pH 7.4) buffer at 37 C. Tension was set at 0.25 g and during an equilibrium period of 1 h the tissues were repeatedly washed with fresh buffer and tension readjusted following stress relaxation. Endothelium-intact rings were incubated for 40 min with N^G-nitro-L-arginine methyl ester (L-NAME, 300 μM) and indomethacin (10 μM) and following constriction with phenylephrine (PE) cumulative concentration-relaxation curves to ACh or A23187 were constructed. Some preparations were preincubated for 40 min with either 2′5′-dideoxyadenosine (2′5′-DDA, 200 μM), 3-isobutyl-1-methylxanthine (IBMX, 20 μM), 18α-GA (100 μM), glibenclamide (10 μM), the combination of charybdotoxin (100 nM) and apamin (300 nM), or the combination of charybdotoxin (100 nM), apamin (300 nM) and IBMX (20 μM). Concentration-response curves to ACh and A23187 were also constructed for endothelium-denuded rings in the absence/presence of IBMX (20 μM). In experiments with IBMX the concentration of PE used to induce tone was increased from 1 to 3 μM. All reagents were obtained from Sigma, U.K.

[2] = test system: sandwich preparations of rabbit iliac artery; assay: 'Sandwich' bioassay preparations of iliac artery (endothelium-intact donor ring, denuded detector strip); assay type: cell-based
Text: ‘Sandwich’ preparations. Rings of iliac artery 2-3 mm wide were denuded of endothelium, cut into strips and pierced ˜2 mm from each end using a Monoject needle (0.9 mm×40 mm). These strips were introduced into the lumen of rings of endothelium-intact iliac artery 4-5 mm wide and the tissues sutured together. Composite preparations were then mounted in a Mulvany Multi Myograph (Danish Myo Technology) with the pierced denuded strips hooked onto the large vessel mountings. Tension was initially set at ˜0.25 g and readjusted during an equilibrium period of 1 h. The preparations were then incubated for 40 min with L-NAME (300 μM) and indomethacin (10 μM), constricted with PE (1 or 3 μM), and concentration-response curves constructed for ACh in the presence/absence of IBMX (20 μM), or A23187 in the presence/absence of IBMX (20 μM) or 2′5′DDA (200 μM).
(§2) Statistical Analysis All data are given as mean±SEM, where n denotes the number of animals studied for each data point, and were compared by the Student's t-test for paired or unpaired data as appropriate. P<0.05 was considered as significant. Concentration-response curves were assessed by one-way analysis of variance (ANOVA) followed by the Bonferroni multiple comparisons test.

[3] = test system: rabbit iliac artery rings; assay: EDHF-type relaxation of isolated rabbit iliac artery rings constricted with phenylephrine; assay type: cell-based; conditions: for EC50: Oryctolagus cuniculus; for Maximal EDHF-type relaxations, % of PE-induced tone: approximate, at concentrations ~3 μM; for Maximal EDHF-type relaxations, % of PE-induced tone / Maximal EDHF-type relaxation, % of PE-induced tone (control): L-NAME 300 μM + indomethacin 10 μM
Experimental: as §1, with “The vessels were stripped of adherent tissue, and rings 2-3 mm wide cut and suspended in organ chambers containing gassed (95% 02, 5% CO2, pH 7.4) buffer at 37 C. Tension was set at 0.25 g and during an equilibrium period of 1 h the tissues were repeatedly washed with fresh buffer and tension readjusted following stress relaxation.” left out
as §2

[4] = test system: smooth muscle cAMP levels; assay: Radioimmunoassay of cAMP in iliac artery rings; assay type: cell-based, rabbit; conditions: for Increase (elevation) in smooth muscle cAMP levels: rings incubated with L-NAME and indomethacin, endothelium-dependent
Experimental: (§3) Radioimmunoassay. Multiple rings from the same artery were incubated in oxygenated Holmans buffer containing L-NAME (300 μM) and indomethacin (10 μM) for 40 min at 37° C. in the presence or absence of 18α-GA (100 μM). Rings were frozen in liquid N2 at time points up to 180 s following addition of ACh or A23187 and stored at −70° C. before extraction of cAMP or cGMP in 6% trichloroacetic acid, followed by neutralization with water saturated diethyl ether and subsequent radioimmunoassay (Amersham UK). PE (1 μM) was added 3 min before the initial control point and control experiments were performed with endothelium-denuded rings. Nucleotide levels were expressed relative to protein content (27).

cGMP levels = assay: Radioimmunoassay of cGMP in iliac artery rings; assay type: cell-based, rabbit; conditions: in the presence of L-NAME and indomethacin
Experimental: as §3

[5] = test system: gap junctions in isolated rabbit femoral arteries; assay: Dye transfer (calcein AM) from endothelium to media in perfused femoral arteries; assay type: cell-based; conditions: for Space constant of decay of medial fluorescence: calcein AM, control 8.54 μm; for Dye within the vessel wall after intraluminal perfusion: 10 μM dye perfused through the lumen for 30 min
Experimental: Dye Transfer. […] In control experiments arteries were perfused with 10 μM calcein, which is membrane impermeable. The vessels were subsequently removed from the myograph and fixed in 0.1 M PBS containing 0.2% glutaraldehyde and 2% formalin for 90 min before cryopreservation in OCT compound (Agar Scientific, […], UK), cooled by liquid N2. Cryosections of transverse rings (10 μm thick) were prepared and mounted onto poly-L-lysine-coated slides under Fluorsave (Calbiochem) and imaged with a TCS four-dimensional confocal laser scanning system (Leica) with the filters set for 490 nm excitation and 525 nm emission. A gallery of several images was collected at 0.5-μm steps for each sample followed by image processing by using […] software to obtain a maximum projection image.

[6] = test system: subintimal smooth muscle cells of rabbit iliac artery strips; assay: Membrane potential experiments (sharp microelectrode) in iliac artery strips; assay type: cell-based
Experimental: Membrane Potential Experiments. Iliac artery strips were held adventitia down in an oxygenated (95% O2, 5% CO2) organ chamber by a Harp slice grid (ALA Scientific Instruments, USA) superfused (2 ml/min at 37° C.) with Holmans solution containing 300 μM L-NAME and 10 μM indomethacin. Transmembrane potential was recorded with glass capillary microelectrodes (tip resistance of 60-110 M[…] filled with 3M KCl and connected to the headstage of a SEC-10LX amplifier (NPI Electronic, Germany). Successful impalements were achieved following a sudden negative drop in potential from baseline and a stable signal for at least 2 min. To ensure recordings were made from smooth muscle cells the microelectrode was advanced into the subintima using a PCS-5000 micromanipulator (Burleigh Instruments, UK) until there had been 2-3 such negative deflections. After first obtaining control responses to ACh by direct administration into the organ chamber under conditions of no flow, the strips were washed with fresh buffer before incubation with either 200 μM […] alone or the combination of 200 μM 2′,3′-DDA plus 30 μM IBMX followed by repeat exposure to ACh.

pig coronary artery = conditions: cited from earlier work
[7] = endothelium-intact rings, L-NAME + indomethacin, control of IBMX / 2′,5′-DDA series, read-out: EC50 of EDHF-type relaxation (control)
[8] = endothelium-intact rings, control of IBMX / 2′,5′-DDA series

Molecule: CNC[C@H](O)c1cccc(O)c1 [PE, phenylephrine]
- PE-evoked constrictions ([1]; 1 μM PE, L-NAME 300 μM and indomethacin 10 μM, intact endothelium, pooled data): 2.0 ± 0.1 g
- Initial tension restored by PE in presence of IBMX ([1]; 3 μM PE, IBMX 20 μM, pooled data): 1.8 ± 0.1 g

Molecule: CNc1ccc2oc(C[C@H]3O[C@@]4(CC[C@H]3C)O[C@H]([C@H](C)C(=O)c3ccc[nH]3)[C@H](C)C[C@H]4C)nc2c1C(=O)O [A23187]
- Maximal EDHF-type relaxation in sandwich preparations, % of PE-induced tone ([2]; L-NAME 300 μM + indomethacin 10 μM, no modulator): 52.0±8.0%
- EC50 ([2]; Oryctolagus cuniculus, read-out: EC50 of relaxation in sandwich preparations): 240 ± 40 nM
- EC50 ([3]; read-out: EC50 of A23187 relaxation (control of charybdotoxin/apamin series)): 291 ± 128 nM
- EC50 [3, 7]: 328 ± 123 nM
- Maximal EDHF-type relaxations, % of PE-induced tone [3]: ~40%
- Relaxation after endothelial denudation ([3]; endothelium-denuded rings): abolished
- Relaxation in endothelium-denuded rings incubated with IBMX, % of PE-induced tone ([3]; endothelium-denuded rings, IBMX 20 μM): 21.7±3.6%
- Maximal EDHF-type relaxation, % of PE-induced tone (control) [3, 8]: 50.2±5.6%
- Maximal relaxation to A23187, % of PE-induced tone (control of charybdotoxin/apamin series) ([3]; endothelium-intact rings, L-NAME + indomethacin): 50.0±5.8%
- Time of peak in cAMP levels ([4]; agonist 3 μM, endothelium-intact rings, L-NAME 300 μM + indomethacin 10 μM): 40 to 50 s
- Change of cAMP level in endothelium-denuded preparations ([4]; endothelium-denuded, basal 3.97±0.49 pmol/mg protein): did not significantly increase
- Increase (elevation) in smooth muscle cAMP levels [4]: 1.5 fold
- Effect on cGMP levels (cGMP levels): unaltered

Molecule: CC1(C)[C@@H](O)CC[C@]2(C)[C@H]3C(=O)C=C4[C@H]5C[C@@](C)(C(=O)O)CC[C@]5(C)CC[C@@]4(C)[C@]3(C)CC[C@@H]12 [18α-GA, 18α-glycyrrhetinic acid]
- Effect on EDHF-type relaxations evoked by A23187 ([3]; 18α-GA 100 μM): had no effect
- Effect on EDHF-type relaxations evoked by ACh ([3]; 18α-GA 100 μM): effectively abolished
- Effect on nucleotide (cAMP) accumulation evoked by A23187 ([4]; 18α-GA 100 μM, A23187 3 μM): no significant effect
- Effect on transient rise in cAMP levels evoked by ACh ([4]; 18α-GA 100 μM, ACh 3 μM): abolished

Molecule: Nc1nc2c(nc(Br)n2[C@@H]2O[C@@H]3COP(=O)(O)O[C@H]3[C@H]2O)c(=O)[nH]1 [8-bromo-cGMP]
- Space constant of decay of medial fluorescence ([5]; 1 mM nucleotide analogue): 8.39 ± 0.44 μm

Molecule: CC(C)Cn1c(=O)n(C)c(=O)c2[nH]cnc21 [IBMX, 3-isobutyl-1-methylxanthine]
- Reversal of the 2′,3′-DDA block of hyperpolarization ([6]; IBMX 30 μM after 200 μM 2′,3′-DDA): completely reversed
- Maximal relaxation to A23187 in sandwich preparations with IBMX ([2]; IBMX 20 μM): 70.0±6.50%
- Maximal relaxation to A23187 in presence of IBMX ([3]; IBMX 20 μM, A23187-evoked, endothelium-intact rings, control 50.2%): 73.0 ± 8.5%
- Maximal relaxation to ACh in presence of IBMX ([3]; IBMX 20 μM, ACh-evoked, endothelium-intact rings, control 36.0%): 65.5±4.5%
- Space constant of decay of medial fluorescence ([5]; 20 μM IBMX): 11.50±0.80 μm and ≈ 12 μm

Molecule: O=C(O)CN(CC(=O)O)Cc1cc2c(cc1O)Oc1cc(O)c(CN(CC(=O)O)CC(=O)O)cc1C21OC(=O)c2ccccc21 [calcein]
- Dye within the vessel wall after intraluminal perfusion [5]: only autofluorescence of the internal elastic lamina was evident

Molecule: C[C@H]1O[C@@H](n2cnc3c(N)ncnc32)C[C@@H]1O [2′,5′-DDA, 2′,5′-dideoxyadenosine]
- Maximal relaxation to A23187 in sandwich preparations with 2′,5′-DDA, % of PE-induced tone ([2]; 2′,5′-DDA 200 μM): 18.5±9.2%
- Maximal relaxation to A23187 in presence of 2′,5′-DDA, % of PE-induced tone ([3]; 2′,5′-DDA 200 μM, A23187-evoked, endothelium-intact rings): 40.3±8.3%
- Maximal relaxation to ACh in presence of 2′,5′-DDA ([3]; 2′,5′-DDA 200 μM, ACh-evoked, endothelium-intact rings): 11.0±1.9%
- Effect on transient peak in cAMP levels evoked by ACh ([4]; 2′,5′-DDA 200 μM, ACh 3 μM): abolished
- Effect on PE contractions [1]: unaffected

Molecule: COc1cc2c3cc1Oc1cc(ccc1O)C[C@@H]1c4c(cc(OC)c(O)c4Oc4ccc(cc4)C[C@@H]3N(C)CC2)CC[N+]1(C)C [d-tubocurarine]
- Effect on endothelial hyperpolarization evoked by 0.5 μM A23187 (pig coronary artery): abolished
- Effect on mechanical relaxation and endothelium and smooth muscle hyperpolarizations evoked by substance P (pig coronary artery): inhibited
- Effect on relaxation and smooth muscle hyperpolarization evoked by 0.5 μM A23187 (pig coronary artery): unaffected

Molecule: COc1ccc(Cl)cc1C(=O)NCCc1ccc(S(=O)(=O)NC(=O)NC2CCCCC2)cc1 [glibenclamide]
- Effect on EDHF-type relaxations evoked by A23187 ([3]; glibenclamide 10 μM): did not significantly affect
- Effect on EDHF-type relaxations evoked by ACh ([3]; glibenclamide 10 μM): did not significantly affect
- Effect on PE contractions [1]: unaffected

Molecule: CC(=O)OCC[N+](C)(C)C [ACh, acetylcholine]
- Subintimal hyperpolarization sustained below baseline ([6]; 3 μM Ach, intact endothelium): ~20 mV
- EC50 [3, 7]: 555 ± 121 nM
- Maximal EDHF-type relaxations, % of PE-induced tone [3]: ~40%
- Maximal EDHF-type relaxation, % of PE-induced tone (control) [3, 8]: 36.0±5.0%
- Increase (elevation) in smooth muscle cAMP levels [4]: 1.5 fold

Molecule: Nc1ncnc2c1ncn2[C@H]1CC[C@@H](CO)O1 [2′, 3′-DDA, 2′,3′-dideoxyadenoine]
- Attenuation of transmission of electrical changes in endothelial membrane potential into subintimal smooth muscle cells ([6]; 200 μM, ACh-evoked): ~75%

Molecule: calcein AM
- Dye within the vessel wall after intraluminal perfusion [5]: detected within the vessel wall
- Space constant of decay of medial fluorescence (control conditions) ([5]; calcein AM 10 μM, L-NAME + indomethacin): 8.54±0.39 μm
